From patent publication US7351722B2, “Use of Mangafodipir for treating oxidative stress effects” (Universite Rene Descartes (Paris V), priority 2001, dated 2008)

Key:
[1] = tested on: hepatocellular deficiency; details: inventors' prior studies (PCT/WO 01/12327; Ferret et al. 2001); cited from earlier work
[2] = tested on: acetaminophen-induced acute hepatic failure; assay: Animal survival in acetaminophen-induced acute hepatic failure, comparison of Mangafodipir, MnTBAP and CuDIPS (Example 7); assay type: in vivo, mice; details: for number of surviving animals: 10 mg/kg bolus 2 h before 1000 mg/kg APAP, n = 12
Method: The Mangafodipir, the MnTBAP or the CuDIPS are administered in the form of a bolus, in the preventive capacity, 2 hours before the acetaminophen.
Animal survival is monitored for 24 hours after the administration of acetaminophen.

| Structure (SMILES) | effect on hepatocellular deficiency [1] | number of surviving animals ([2]; time 0 h) | number of surviving animals ([2]; time 6 h) | number of surviving animals ([2]; time 8 h) | number of surviving animals ([2]; time 9 h) | number of surviving animals ([2]; time 10 h) | number of surviving animals ([2]; time 11 h) | number of surviving animals ([2]; time 12 h) | number of surviving animals ([2]; time 13 h) | number of surviving animals ([2]; time 14 h) | number of surviving animals ([2]; time 15 h) | number of surviving animals ([2]; time 16 h) | number of surviving animals ([2]; time 17 h) | number of surviving animals ([2]; time 18 h) | number of surviving animals ([2]; time 20 h) | number of surviving animals ([2]; time 22 h) | number of surviving animals ([2]; time 24 h) | effect on survival rate ([2]; 10 mg/kg preventively, 1000 mg/kg APAP, 24 h) |
| --- | --- | --- | --- | --- | --- | --- | --- | --- | --- | --- | --- | --- | --- | --- | --- | --- | --- | --- |
| CC(C)c1cc(C(=O)[O-])c(O)c(C(C)C)c1.CC(C)c1cc(C(=O)[O-])c(O)c(C(C)C)c1.[Cu+2] [CuDIPS, Cu[II]-[diisopropylsalicylate]] | no significant effect | 12 | 12 | 11 | 10 | 9 | 7 | 7 | 5 | 5 | 5 | 4 | 4 | 3 | 3 | 3 | 3 | does not significantly increase the survival rate |
| O=C(O)c1ccc(-c2c3nc(c(-c4ccc(C(=O)O)cc4)c4ccc([n-]4)c(-c4ccc(C(=O)O)cc4)c4nc(c(-c5ccc(C(=O)O)cc5)c5ccc2[n-]5)C=C4)C=C3)cc1.[Mn+3] [MnTBAP, Mn(III)-tetrakis(5,10,15,20-benzoic acid)-porphyrin] | notable preventive and curative effect | 12 | 12 | 12 | 12 | 11 | 10 | 10 | 10 | 9 | 9 | 8 | 8 | 8 | 8 | 7 | 7 | – |
